In patent publication US5278161A, “Amino acid derivatives useful as renin inhibitors” (Hoffmann-La Roche Inc., priority 1990, dated 1994):

Target: T1, human renin (Homo sapiens, UniProt P00797)
T1 sequence (P00797 67-406): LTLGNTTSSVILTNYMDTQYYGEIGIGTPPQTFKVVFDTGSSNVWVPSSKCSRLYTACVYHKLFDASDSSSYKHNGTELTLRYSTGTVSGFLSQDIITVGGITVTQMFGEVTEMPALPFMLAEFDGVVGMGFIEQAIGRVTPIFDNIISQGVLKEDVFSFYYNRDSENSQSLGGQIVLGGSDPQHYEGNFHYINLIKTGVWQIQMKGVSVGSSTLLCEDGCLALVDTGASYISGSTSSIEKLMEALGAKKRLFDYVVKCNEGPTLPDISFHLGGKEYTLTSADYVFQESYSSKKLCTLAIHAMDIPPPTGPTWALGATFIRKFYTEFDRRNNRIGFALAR
Test: In vitro test with pure human renin (inhibition of angiotensin I production from human tetradecapeptide renin substrate, RIA)
Assay type: biochemical
Settings: pH 7.4 buffer, hTD substrate, three hours at 37° C., angiotensin I by RIA
Experimental: IN VITRO TEST WITH PURE HUMAN RENIN
The test is carried out in Eppendorf test tubes. The incubation mixture consists of (1) 100 μl of human renin in buffer A (0.1M sodium phosphate solution, pH 7.4, containing 0.1% bovine serum albumin, 0.1% sodium azide and 1 mM ethylenediaminetetraacetic acid), sufficient for a renin activity of 2-3 ng of angiotensin I/ml/hr.; (2) 145 μl of buffer A; (3) 30 μl of 10 μM human tetradecapeptide renin substrate (hTD) in 10 mM hydrochloric acid; (4) 15 μl of dimethyl sulphoxide with or without inhibitor and (5) 10 μl of a 0.03 molar solution of hydroxyquinoline sulphate in water.
The samples are incubated for three hours at 37° C. or 4° C. in triplicate. 2×100 μl samples per experimental test tube are used in order to measure the production of angiotensin I via RIA (standard radioimmunoassay; clinical assay solid phase kit). Cross reactivities of the antibody used in the RIA are: angiotensin I 100%; angiotensin II 0.0013%; hTD (angiotensin I-Val-Ile-His-Ser-OH) 0.09%. The production of angiotensin I is determined by the difference between the experiment at 37° C. and that at 4° C.
The following controls are carried out:
(a) Incubation of hTD samples without renin and without inhibitor at 37° C. and 4° C. The difference between these two values gives the base value of the angiotensin I production.
(b) Incubation of hTD samples with renin, but without inhibitor at 37° C. and 4° C. The difference between these values gives the maximal value of angiotensin I production.
In each sample the base value of the angiotensin I production is subtracted from the angiotensin I production which is determined. The difference between the maximal value and the base value gives the value of the maximal substrate hydrolysis (=100%) by renin.
The results are given as IC50 values which denote that concentration of the inhibitor at which the enzymatic activity is inhibited by 50%. The IC50 values are determined from a linear regression curve from a logit-log plot.

IC50 [nM] | Structure (SMILES)
11 | CCC(C)c1nc(-c2cccnc2)cn2c(C(=O)N[C@@H](CC3CCCCC3)[C@@H](O)[C@@H](O)C3CC3)nnc12 (mixture of isomers) [F, N-[(1S,2R,3S)-1-(cyclohexylmethyl)-3-cyclopropyl-2,3-dihydroxypropyl]-8-[(RS)-1-methylpropyl]-6-(3-pyridyl)-s-triazolo[4,3-a]pyrazine-3-carboxamide]
61 | CCCc1nc(-c2cccnc2)cn2c(C(C(=O)N[C@@H](CC3CCCCC3)[C@@H](O)[C@@H](O)C3CC3)c3cccnc3)nnc12 (single isomer, unassigned) [A, (R or S)-N-[(1S,2R,3S)-1-(Cyclohexylmethyl)-3-cyclopropyl-2,3-dihydroxypropyl]-8-propyl-α,6-bis(3-pyridyl)-s-triazolo[4,3-a]pyrazine-3-acetamide]
43 | CC(C)c1nc(-c2cccnc2)cn2c(C(Cc3c[nH]cn3)C(=O)N[C@@H](CC3CCCCC3)[C@@H](O)[C@@H](O)C3CC3)nnc12 (single isomer, unassigned) [B, (R or S)-N-[(1S,2R,3S)-1-(cyclohexylmethyl)-3-cyclopropyl-2,3-dihydroxypropyl]-8-isopropyl-α-(imidazol-4-ylmethyl)-6-(3-pyridyl)-s-triazolo[4,3-a]pyrazine-3-acetamide]
42 | CC(C)Cc1nc(-c2cccnc2)cn2c(C(Cc3cnc[nH]3)C(=O)N[C@@H](CC3CCCCC3)[C@@H](O)[C@@H](O)C3CC3)nnc12 (single isomer, unassigned) [C]
57 | CCCc1nc(-c2cccnc2)cn2c(C(Cc3cccnc3)C(=O)N[C@@H](CC3CCCCC3)[C@@H](O)[C@@H](O)CC(C)C)nnc12 (single isomer, unassigned) [D, (R or S)-N-[(1S,2R,3S)-1-(cyclohexylmethyl)-2,3-dihydroxy-5-methylhexyl]-8-propyl-6-(3-pyridyl)-α-(3-pyridylmethyl)-s-triazolo[4,3-a]pyrazine-3-acetamide]
48 | CCC(C)c1nc(-c2cccnc2)cn2c(C(Cc3cccnc3)C(=O)N[C@@H](CC3CCCCC3)[C@@H](O)[C@@H](O)C3CC3)nnc12 (single isomer, unassigned) [E, (S or R)-N-[(1S,2R,3S)-1-(cyclohexylmethyl)-3-cyclopropyl-2,3-dihydroxypropyl]-8-[(RS)-1-methylpropyl]-α-(3-pyridylmethyl)-6-(3-pyridyl)-s-triazolo[4,3-a]pyrazine-3-acetamide]
